Measured values: patent US10426773B2, “Systems pharmacology for treating ocular disorders” (Case Western Reserve Univeristy, priority 2011, dated 2019)
“Also recorded” adds a separate entry of the source. Like-named read-outs stand apart in the source and are kept apart here.

Assays:
Abca4−/−Rdh8−/− mice [1] = assay: Bright light-induced retinal degeneration in Abca4−/−Rdh8−/− mice, retinal histology and immunohistochemistry; type: in vivo, mouse; settings: pretreatment before light 10,000 lux 30 min; 7-10 days after light exposure
Method: Retinal histology and immunohistochemistry (IHC) was performed as previously described. Briefly, eye cups free of cornea, lens and vitreous body were fixed in 2% glutaraldehyde/4% paraformaldehyde and processed for Epon embedding. Sections 1 am thick were cut and stained with toluidine blue for histological examination under a light microscope. IHC analysis was performed on 12 am thick cryosections prepared from 4% paraformaldehyde-fixed eye cups. Collected cryosections were subjected to examination for rhodopsin, PNA and DAPI expression.
Retinal immunohistochemistry (IHC) was carried out as previously described. Briefly, eyes were enucleated and eye cups were made to eliminate cornea, lens and vitreous body and fixed in 4% paraformaldehyde and processed for cryosectioning. 12 am thick cryosections were collected cryosections and subjected to examination for rhodopsin, peanut agglutinin lectin (PNA) and DAPI expression.
Retinal immunohistochemistry (IHC) was performed as previously described. Briefly, eyes were enucleated and, after removal of the cornea, lens and vitreous body, eye cups were fixed in 4% paraformaldehyde and processed for cryosectioning. Twelve μm thick cryosections were cut, collected and examined for rhodopsin expression, peanut agglutinin lectin (PNA) for cone sheath and nuclear DAPI staining. […]

[2] = tested on: ROS generation in photoreceptors of Abca4−/−Rdh8−/− mice; assay: In vivo detection of ROS (DHE probe) in retinas of light-exposed Abca4−/−Rdh8−/− mice; design: species or system mouse; settings: for ROS generation in photoreceptors (DHE signal): Example 3, DOX 10 mg/kg, GUB 2.0 mg/kg, SQ 0.5 mg/kg ip 30 min prior to light
Abca4−/−Rdh8−/− mice [3] = settings: mouse, in vivo
BALB/c mice [4] = assay: Light-induced retinal degeneration in BALB/c mice, SLO autofluorescence imaging; type: in vivo, mouse; settings: DOX 10, GUB 2.0, SQ 0.5 mg/kg, 7 days after light
Method: (§1) SLO (Heidelberg Engineering) was carried out for in vivo whole fundus imaging of mouse retinas. […] Numbers of autofluorescent spots were counted and subjected to statistical analyses as described below.
These drugs were administered to 4-week-old BALB/c mice by intraperitoneal injection 30 min prior to white light exposure at 10,000 lux for 1 h. Retinal morphology was assessed 7 days after light exposure by OCT imaging and histological examination.

Abca4−/−Rdh8−/− mice [5] = assay: Bright light-induced retinal degeneration in Abca4−/−Rdh8−/− mice, OCT imaging of retinal structure; type: in vivo, mouse; settings: for retinal / photoreceptor morphology by OCT imaging: pretreatment before light 10,000 lux 30 min, OCT 7 days after light exposure
Abca4−/−Rdh8−/− mice [6] = assay: Bright light-induced retinal degeneration in Abca4−/−Rdh8−/− mice, SLO autofluorescence imaging; type: in vivo, mouse; settings: pretreatment before light 10,000 lux 30 min; SLO 8-9 days after light exposure
Method: SLO (Heidelberg Engineering, Heidelberg, Germany) was carried out for whole fundus imaging of mouse retinas. Mice were anesthetized by intraperitoneal injection of anesthetic cocktail indicated above, which was followed by pupil dilation using 1% tropicamide prior to SLO imaging under autofluorescence mode.
as §1
SLO (Heidelberg Engineering) was carried out for whole fundus imaging of mouse retinas in vivo. Mice were anesthetized, and their pupils were dilated as described above. SLO images were then acquired in the autofluorescence mode.

BALB/c mice [7] = assay: Light-induced retinal degeneration in BALB/c mice, retinal morphology (OCT, histology, IHC); type: in vivo, mouse; settings: ip pretreatment 30 min before 10,000 lux, 7 days after light
[8] = Quantification of selected drugs in mouse serum and eye by LC-MS; type: in vivo, C57BL/6J WT mice; settings: for Eye ± SD / concentration at 30 min: 30 min after a single ip dose: DOX 10, GUB 2, SQ 0.5 mg per kilogram; for Eye ± SD: mice perfused with PBS; for concentration at 30 min: C57BL/6J, mouse, serum, intraperitoneal, read-out: Serum ± SD; for amount in eye compared with level in 0.1 mL of serum: eye volume taken as about 0.1 mL
Method: C57BL/6J WT mice at 6 weeks of age (Jackson Laboratory) were treated with DOX, GUB, or SQ at a single dose of 10, 2, and 0.5 mg per kilogram, respectively. The compound was dissolved in 50% DMSO in PBS (137 mM NaCl, 2.7 mM KCl, 0.67 mM […]). Next, to precipitate excess proteins, 0.3 ml of methanol was added to both the eye homogenate and 0.1 ml of serum. Samples were vortexed for 30 s followed by centrifugation for 15 min at 16,000 g. Clear supernatants were collected and used directly for LC-MS analysis. 2HPO4/KH2PO4, pH 7.4) and administrated by intraperitoneal injection. Thirty minutes later the mice were anesthetized. Blood samples were collected using the technique of cardiac puncture and subsequently centrifuged (5 min, 16,000 g) to collect serum. Prior to harvesting eyes, mice were intracardially perfused with PBS to minimalize blood contamination. Eye balls were immediately homogenized in 0.1 ml of PBS. The homogenate and serum samples were spiked with 100 pmols of internal standard (IS) (parazosin—2-[4-(2-furoyl)piperazin-1-yl]-6,7-dimethoxyquinazolin-4-amine (Sigma Aldrich) or clenbuterol—(RS)-1-(4-Amino-3,5-dichlorophenyl)-2-(tert-butylamino)ethanol (Sigma Aldrich)) for DOX, GUB or SQ quantification, respectively.
Mass spectrometry (MS) based detection and quantification of DOX, GUB, and SQ was performed with a L×Q linear ion trap mass spectrometer (Thermo Scientific) equipped with an electrospray ionization (ESI) interface and coupled to Agilent 1100 HPLC (Agilent Technologies). Separation of drugs and the internal standards was achieved on a reverse phase C18 Phenomenex HPLC column (250×4.60 mm; 5 μm) by a linear gradient of to 100% acetonitrile in water within 15 min at flow rate of 0.5 ml/min. All solvents contained 0.1% formic acid (v/v). The HPLC effluent was sprayed into the MS via an ESI probe operated in the positive ionization mode. Parameters of ionization and detection were tuned with synthetic standards for the drugs to achieve the highest possible sensitivity. Dox and parazosin (internal standard) were detected by selected reaction monitoring (SRM) using m/z 452.2→344.2 and 384.2→247.1 transitions whereas GUB, SQ and their corresponding IS, clenbuterol, was by fragmentation at m/z 231.1→214.0, 206.1→136.0, and 277.1→259.1, respectively. The elution times for DOX, GUB, and SQ were ˜12.8, 12.3, and 10.8 min, respectively. Both internal standards eluted at 12.0 min (FIG. 34). Calibration curves were calculated based on the linear relationship between ratios of SRM ion intensity peak area corresponding to the selected drug and the IS vs. molar ratios of the compounds in the range of 20-500 pmol (FIG. 34H).

[9] = tested on: visual pigment regeneration; assay: Effect on chromophore regeneration (ERG responses and 11-cis-retinal levels after bleaching); type: in vivo; settings: SQ treatment
Description: It is also worth noting that rhodopsin could be a central player in light-induced retinal degeneration, and that reduced amounts of rhodopsin protect the retina from light-induced degeneration. Therefore we examined the potential impact of the AC inhibitor SQ on chromophore regeneration given that AC is the central player in our newly identified GPCR signaling implicated in light-induced retinopathy (FIG. 1). […] Therefore, the possibility of an acute effect of pharmacological compounds on phototransduction could be ruled out.

Abca4−/−Rdh8−/− mice [10] = assay: Bright light-induced retinal degeneration in Abca4−/−Rdh8−/− mice, ERG retinal function; settings: pretreatment before light 10,000 lux 30 min; ERG 7 days to 2 weeks after; listed as SQ

| SMILES | retinal histology / immunohistochemistry (rhodopsin, PNA, DAPI; ONL) (Abca4−/−Rdh8−/− mice [1]) | ROS production in the ONL / photoreceptors (DHE signal) ([2]; Example 1, pretreatment before light 10,000 lux 30 min, retinas 3 h after illumination) | retinal function by ERG (a-wave and b-wave amplitudes) (Abca4−/−Rdh8−/− mice [3]) | autofluorescent spots by SLO (BALB/c mice [4]) | retinal / photoreceptor morphology by OCT imaging (Abca4−/−Rdh8−/− mice [5]; listed as GUB) | half maximal effective (protective) dose (Abca4−/−Rdh8−/− mice [5]; protection from bright light-induced degeneration, dose-response, FIG. 25A/B) [mg/kg] | ROS generation in photoreceptors (DHE signal) [2] | retinal autofluorescence spots by SLO imaging (Abca4−/−Rdh8−/− mice [6]) | retinal morphology / ONL (OCT, histology) (BALB/c mice [7]) | Eye ± SD [8] [pmol/eye] | concentration at 30 min [8] [nM] | amount in eye compared with level in 0.1 mL of serum ([8]; listed as GUB) | ERG responses and 11-cis-retinal levels after bleaching [9] | retinal / photoreceptor morphology by OCT imaging (Abca4−/−Rdh8−/− mice [5]) | retinal function by ERG (a-wave and b-wave amplitudes) (Abca4−/−Rdh8−/− mice [10]) | amount in eye compared with level in 0.1 mL of serum [8] [times lower] |
| --- | --- | --- | --- | --- | --- | --- | --- | --- | --- | --- | --- | --- | --- | --- | --- | --- |
| NCCOB(c1ccccc1)c1ccccc1 [2-APB, 2-aminoethoxydiphenyl borate] | significantly preserved retinal morphology | reduced ROS production | protective effect | – | – | – | – | – | – | – | – | – | – | – | – | – |
| N=C(N)N/N=C/c1c(Cl)cccc1Cl [Guanbenz] | substantially preserved photoreceptor morphology | – | – | prevented | significantly prevented; also recorded: dose-dependent fashion | 0.3 | decreased | markedly less autofluorescence spots | retinal morphology of drug-treated mice was maintained | 13.1 ± 4.7 | 70 ± 18 | comparable | – | – | – | – |
| Nc1ncnc2c1ncn2C1CCCO1 (stereo not drawn) [SQ 22536] | substantially preserved photoreceptor morphology | – | – | prevented | – | – | decreased | dose-dependent effect | retinal morphology of drug-treated mice was maintained | 5.6 ± 2.2 | 193 ± 55 | – | no significant changes | protected retinas from light-induced degeneration in a dose-dependent manner | substantial preservation of the scotopic ERG response; also recorded: substantial preservation of this response | 5 |
